Laboratory results published in patent US9701646B2, “Small molecule inhibitors of PI3-kinase signaling” (Tufts University, priority 2013, dated 2017).
Where two headings read alike, the source gives them in different places.

B1: TRAIL: Tumor necrosis factor (TNF)-related apoptosis-inducing ligand; recombinant His6-tagged human TRAIL produced in E. coli (protein, UniProt P50591 1-281, looked up)
Tumor necrosis factor ligand …: MAMMEVQGGPSLGQTCVLIVIFTVLLQSLCVAVTYVYFTNELKQMQDKYSKSGIACFLKEDDSYWDPNDEESMNSPCWQVKWQLRQLVRKMILRTSEETISTVQEKQQNISPLVRERGPQRVAAHITGTRGRSNTLSSPNSKNEKALGRKINSWESSRSGHSFLSNLHLRNGELVIHEKGFYYIYSQTYFRFQEEIKENTKNDKQMVQYIYKYTSYPDPILLMKSARNSCWSKDAEYGLYSIYQGGIFELKENDRIFVSVTNEHLIDMDHEASFFGAFLVG
modifications: His6 tag
notes: Tumor necrosis factor (TNF)-related apoptosis-inducing ligand; recombinant His6-tagged human TRAIL produced in E. coli

Columns and labels:
[1] = tested on: A2780 cells; experiment: In vitro wound closure (cell migration), A2780; format: cell-based, human; conditions: A2780, up to 76 h
Method: A2780 cells and T47D cells were grown to confluence in separate cultures under conditions of 37° C., 5% CO2, and complete medium. At time zero, a pipette tip was dragged across the cells, producing a linear defect in the confluent layer of cells. Medium was then supplemented with various concentrations of DM-PIT-1, YK-NCL-176, or YK-NCL-240, or an equivalent volume of DMSO alone, and cells were maintained in culture for an additional 76 h. Linear defects were viewed with a microscope at 0, 21, 47, 69, and 76 h following addition of test agent, and the width of the defect was quantitated at each time point. This in vitro assay represents a model of wound closure.

[2] = tested on: A2780 ovarian carcinoma; experiment: A2780 cell viability, CellTiter-Blue, free and micellar formulations; format: cell-based, human; conditions: for cytotoxicity on addition of TRAIL to the formulation: A2780, micellar formulation plus TRAIL; for cytotoxicity as free compound compared to DM-PIT-1: A2780, 24 h
Method: Cell viability of A2780 ovarian carcinoma was measured using CellTiter-Blue® (Promega, Madison, Wis.) viability assay. Briefly, cells were seeded in 96-well plates according to proper cell densities (3,000-5,000 cells). After 24 h incubation in 5% CO2 at 37° C., cells were treated with formulations at various concentrations for 24 h in serum complete media. After 24 h treatment, media was removed, the wells were washed with serum complete media and replaced with 50 μL media and 10 μL CellTiter-Blue®. Cell viability was evaluated after 4 h of incubation at 37° C. at 5% CO2 by measuring the fluorescence (ex. 550 nm, em. 590 nm) using a Synergy HT multi-detection microplate reader (Biotek, Winooski, Vt.).

[3] = Micellar drug loading by reverse phase HPLC; format: physicochemical; conditions: PEG-PE micelles, PEG-PE 13.07 mg/mL, n = 3 with SD
Method: Drug incorporation efficiency was measured by reverse phase HPLC using an Xbridge C18 ([…]) column (Waters Corporation, Milford, Mass.) on a Hitachi Elite LaChrom HPLC with autosampler (Pleasanton, Calif.). The HPLC method was modified from previously published method. Skidan I et al., J Chromatogr B Analyt Technol Biomed Life Sci 879:1610-1616 (2011). The mobile phase consisted of either 70:30 acetonitrile:water (DM-PIT-1) or 60:40 acetonitrile:water (NCL-176, NCL-179, NCL-198, NCL-240) with a flow rate of 1 mL/min. Detection of drug was performed at a wavelength corresponding to a peak on the absorption spectrum (DM-PIT-1: 320 nm, NCL-176: 260 nm, NCL-179: 295 nm, NCL-198: 295 nm, NCL-240: 300 nm). Sample injections were kept constant at 50 μL and the sample runtime was 10 min. Concentration of drug was determined by measuring the area under curve of the peak. Standard curves of stock drug in acetonitrile from concentrations of 10 μg/mL to 15 ng/mL were used to determine incorporation of drug in micelles. 5 μL of dialyzed drug-loaded micelles were diluted in 495 μL acetonitrile to destroy micelles.

[4] = tested on: A2780 human ovarian cancer cells; experiment: Cell viability of A2780 cells, ATP assay; format: cell-based; conditions: for cell viability in combination with TRAIL: versus compound alone; for EC50: Homo sapiens
Method: (§1) A2780 human ovarian cancer cells were maintained in culture at 37° C., 5% CO2, complete medium for 24 h in the presence of various final concentrations of DM-PIT-1, YK-NCL-176, YK-NCL-198, or NK-YCL-240, each in DMSO, with or without 1 μg/mL TRAIL. DMSO alone was used as a negative control. Following the incubation, cell viability was measured using an ATP assay.
as §1, with “YK-NCL-217, YK-NCL-218, NK-YCL-219, YK-NCL-220, YK-NCL-234,” for “YK-NCL-176, YK-NCL-198,”, “YK-NCL-241,” for “NK-YCL-240,”

[5] = Micellar drug release by dialysis; format: physicochemical; conditions: 37° C.
Method: Drug-loaded micelles were analyzed for their in vitro drug release profile at 37° C. in 1×PBS pH 7.4 over 48 hrs. Micelles were prepared as described previously. 500 μL of drug-loaded micelles were aliquoted into Spectra/Pro® regenerated cellulose dialysis membranes with a MWCO of 1,000 Da and dialyzed against a large excess of 1×PBS pH 7.4. At predetermined times, dialysis bags were opened and aliquots of sample were taken and diluted with 200 μL acetonitrile. Drug concentration was determined by HPLC using previously described methods.

[6] = tested on: U87MG human glioblastoma cells; experiment: Cell viability of U87MG cells, ATP assay; format: cell-based; conditions: for EC50: Homo sapiens, U-87 MG, 24 h
Method: U87MG human glioblastoma cells were maintained in culture at 37° C., 5% CO2, complete medium for 24 h in the presence of various final concentrations of YK-NCL-176, YK-NCL-177, YK-NCL-178, YK-NCL-179, YK-NCL-180, YK-NCL-183, YK-NCL-184, YK-NCL-185, YK-NCL-186, YK-NCL-187, YK-NCL-188, YK-NCL-189, YK-NCL-190, YK-NCL-191, YK-NCL-192, YK-NCL-193, YK-NCL-194, YK-NCL-195, YK-NCL-196, YK-NCL-197, NK-YCL-198, or YK-NCL-199, each in DMSO, with or without 1 μg/mL TRAIL. DMSO alone was used as a negative control. Following the incubation, cell viability was measured using an ATP assay.

[7] = tested on: DU145 human prostate cancer cells; experiment: Cell viability of DU145 cells; format: cell-based
[8] = mouse, in vivo
[9] = target: Akt PH domain (Homo sapiens, UniProt P31749); experiment: Inhibition of Akt PH domain binding to PIP3; conditions: in vitro
Chain of Akt PH domain (P31749 5-108 limits assumed): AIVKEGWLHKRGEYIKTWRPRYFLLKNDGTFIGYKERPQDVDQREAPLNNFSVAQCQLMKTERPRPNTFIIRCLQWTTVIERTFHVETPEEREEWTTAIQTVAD

[10] = tested on: T47D human breast cancer cells; experiment: Cell viability of T47D cells; format: cell-based
[11] = A2780, 24 h, with 1 μg/mL TRAIL
[12] = in DMSO, without TRAIL, read-out: EC50 alone
[13] = with 1 μg/mL TRAIL, read-out: EC50 with TRAIL
[14] = A2780, 24 h, in DMSO, without TRAIL, read-out: EC50 alone
[15] = A2780, 24 h, with 1 μg/mL TRAIL, read-out: EC50 with TRAIL

Molecule	inhibition of cell migration (wound closure) [1]	cytotoxicity on addition of TRAIL to the formulation [2]	Loading Eff. [3]	concentration at which cell viability was reduced by at least 50 percent ([4]; A2780, 24 h, alone)	cell viability in combination with TRAIL [4, 11]	drug released from micelles ([5]; 1×PBS pH 7.4, at 10 h)	EC50 [6, 12]	EC50 [6, 13]	EC50 [4, 14]	EC50 [4, 15]	cytotoxicity as free compound compared to DM-PIT-1 [2]	drug released from micelles ([5]; 1×PBS pH 7.4, after 48 h)	further results
O=C(c1ccccc1)c1cn(-c2cc(Cl)ccc2O)nn1 [YK-NCL-176, (1-(5-Chloro-2-hydroxyphenyl)-1H-1,2,3-triazol-4-yl)(phenyl)methanone]	significantly more effectively than DM-PIT-1	markedly increased cytotoxicity	slightly lower loading	25 µM	further reduced cell viability	completely released	104 µM	51.6 µM					
Cc1cc(C)cc(C(=O)NC(=S)Nc2cc([N+](=O)[O-])ccc2O)c1 [DM-PIT-1, N-[(2-hydroxy-5-nitrophenyl)amino]carbonothioyl-3,5-dimethylbenzamide, reference compound]			slightly lower loading	25 µM	further reduced cell viability	completely released			30.5 µM	18.7 µM			
O=C(c1cc(C(F)(F)F)cc(C(F)(F)F)c1)c1cn(-c2cc(Cl)ccc2O)nn1 [YK-NCL-240, (3,5-Bis(trifluoromethyl)phenyl)(1-(5-chloro-2-hydroxyphenyl)-1H-1,2,3-triazol-4-yl)methanone]	significantly more effectively than either DM-PIT-1 or YK-NCL-176	markedly increased cytotoxicity		< 6.25 µM	further reduced cell viability				1.85 µM	1.11 µM	improved cytotoxicity properties	60%	improvement of EC50 compared to DM-PIT-1 alone ([4]; A2780, alone): 15 fold; improvement of EC50 compared to the combination of DM-PIT-1 and TRAIL ([4]; A2780, with TRAIL): 20 fold; effect of combination with TRAIL on cell viability ([7]; DU145, 1 μg/mL TRAIL): synergistic effect; in vitro cell viability ([7]; DU145, in DMSO, alone): reduce in vitro cell viability; non-toxic dose [8]: up to 50 mg/kg; effect of combination with TRAIL on cell viability ([6]; 1 μg/mL TRAIL): synergistic effect; in vitro cell viability ([6]; in DMSO, alone): reduce in vitro cell viability; binding of the Akt PH domain to PIP3 [9]: robustly inhibited; effect of combination with TRAIL on cell viability ([10]; 1 μg/mL TRAIL): synergistic effect; in vitro cell viability ([10]; in DMSO, alone): reduce in vitro cell viability
Oc1ccc(Cl)cc1-n1cc(C(O)(c2cc(C(F)(F)F)cc(C(F)(F)F)c2)c2cn(-c3cc(Cl)ccc3O)nn2)nn1 [YK-NCL-198, 2,2′-(((3,5-Bis(trifluoromethyl)phenyl)(hydroxy)methylene)bis(1H-1,2,3-triazole-4,1-diyl))bis(4-chlorophenol)]				12.5 µM	further reduced cell viability		34.8 µM	18.8 µM			improved cytotoxicity properties	40%	melting point: 214 °C
Oc1ccc(Cl)cc1-n1cc(C(O)(c2ccccc2)c2cn(-c3cc(Cl)ccc3O)nn2)nn1 [YK-NCL-179, 2,2′-(4,4′-(hydroxy(phenyl)methylene)bis(1H-1,2,3-triazole-4,1-diyl))bis(4-chlorophenol)]							36.7 µM	20.4 µM			improved cytotoxicity properties	40%	
B1													effect on cell viability ([4]; A2780, 24 h, alone, 1 μg/mL): essentially no effect on cell viability
